Assay results as given in the supplement of paper PMC10883282.

How the values were obtained:
Assay in all cases: relative viability vs DMSO control (72 h) (fraction); higher = more viable cells
RD = system: RD
How it was run: (§1)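 Densities for seeding sarcoma cell lines into 384-well plates were set to give 80–90% confluence. After 24 h, 2.5 µl of serially diluted compound from source plates of 10 mM to 0.0002 mM went in, and plates stayed 72 h at 37 °C in 5% CO2 with 0.1% DMSO vehicle and a 5 µM positive control. Percent growth from ATPLite readings, averaged over up to triplicate wells, served as relative viability, rescaled so 1 means full and 0 means none.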

VA-ES-BJ = system: VA-ES-BJ
How it was run: as §1

HS729 = system: HS729
How it was run: as §1

MES-SA = system: MES-SA
How it was run: as §1

SK-LMS-1 = system: SK-LMS-1
How it was run: as §1

O=C1NC(=O)[C@@H](c2cn3c4c(cccc24)CCC3)[C@@H]1c1c[nH]c2ccccc12 [Tivantinib]
relative viability
Conditions | HS729 | MES-SA | RD | SK-LMS-1 | VA-ES-BJ
0.00017 µM | 0.901 | 0.9028 | 1.05 | 1 | 1.01
0.00051 µM | 0.924 | 0.908 | 1.09 | 1.01 | 1.03
0.00152 µM | 0.917 | 0.92 | 1.09 | 0.972 | 1.02
0.00457 µM | 0.899 | 0.919 | 1.1 | 1.002 | 1.03
0.01372 µM | 0.916 | 0.914 | 1.12 | 1 | 1.01
0.04115 µM | 0.865 | 0.888 | 1.04 | 0.965 | 1.01
0.1235 µM | 0.864 | 0.919 | 1.04 | 0.887 | 0.991
0.3704 µM | 0.862 | 0.406 | 0.81 | 0.5799 | 0.76
1.111 µM | 0.599 | 0.285 | 0.371 | 0.497 | 0.464
3.333 µM | 0.621 | 0.205 | 0.219 | 0.385 | 0.439
10 µM | 0.564 | 0.1134 | 0.267 | 0.301 | 0.397

CC1(COc2ccc3c(c2)ncn3-c2ccc3cccc(N4CCC(N)CC4)c3n2)COC1 [Crenolanib]
relative viability
Conditions | HS729 | MES-SA | RD | SK-LMS-1 | VA-ES-BJ
0.00017 µM | 0.96 | 0.919 | 1.02 | 0.98 | 1.03
0.00051 µM | 0.973 | 0.919 | 1.05 | 1.05 | 1.02
0.00152 µM | 1.03 | 0.9274 | 1.04 | 1.036 | 1.04
0.00457 µM | 0.992 | 0.971 | 1.05 | 1.04 | 1.04
0.01372 µM | 1.01 | 0.9531 | 1.07 | 1.03 | 1.05
0.04115 µM | 0.98 | 0.94 | 1.05 | 1.03 | 1.08
0.1235 µM | 0.97 | 0.98 | 1.06 | 1.07 | 1.09
0.3704 µM | 1.01 | 1.05 | 1.1 | 1.02 | 1.11
1.111 µM | 1.034 | 1.03 | 1.11 | 0.967 | 0.961
3.333 µM | 0.983 | 0.475 | 0.955 | 0.8 | 0.466
10 µM | 0.901 | 0.0499 | 0.02007 | 0.0424 | 0.108

CCC(=O)N1CC[C@H](Nc2ncnc3c2CN(c2cnc(OC)c(C(F)(F)F)c2)CC3)C1 [Leniolisib]
relative viability
Conditions | HS729 | MES-SA | RD | SK-LMS-1 | VA-ES-BJ
0.00017 µM | 1.07 | 0.966 | 1.08 | 1.11 | 1.08
0.00051 µM | 1.02 | 0.94 | 1.09 | 1.07 | 1.09
0.00152 µM | 0.964 | 0.932 | 1.11 | 1.1 | 1.05
0.00457 µM | 0.982 | 0.934 | 1.11 | 1.08 | 1.04
0.01372 µM | 0.965 | 0.936 | 1.12 | 1.05 | 1.02
0.04115 µM | 0.95 | 0.906 | 1.09 | 1.04 | 1.06
0.1235 µM | 0.947 | 0.922 | 1.09 | 1.06 | 1.01
0.3704 µM | 0.992 | 0.895 | 1.11 | 0.998 | 1
1.111 µM | 0.838 | 0.8678 | 1.09 | 0.939 | 0.984
3.333 µM | 0.82 | 0.786 | 1.05 | 0.827 | 0.88
10 µM | 0.675 | 0.585 | 0.886 | 0.712 | 0.645
